The text below walks through data of patent US9586951B2 (FUJIFILM Corporation, priority 2013, dated 2017).

The target of one experiment is T1, ATM (Homo sapiens, UniProt Q13315).
T1 construct: detecting phosphorylation of Chk2 in a human non-small cell lung cancer cell line NCI-H460 (ATCC company); host or cells: NCI-H460 human non-small cell lung cancer cells
The experiment is described as follows: ATM inhibition test (phosphorylation of Chk2 generated by ionizing radiation, AlphaScreen SureFire). Format: cell-based. The following applies: phosphorylated Chk2 in NCI-H460 cells, ionizing radiation 8Gy, 1 hour after test compound treatment; read-out: ATM inhibitory activity. The essentials:
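In NCI-H460 cells, radiation-triggered Chk2 phosphorylation (8Gy, 1 h) is detected by AlphaScreen SureFire following 1 h compound exposure.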
On the technique in general: In Alpha technology, singlet oxygen from a donor bead excites a nearby acceptor bead.

Experiment [1] concerns human non-small cell lung cancer cell line NCI-H460. Briefly: Cell proliferation inhibition test by sensitivity-enhancing to ionizing radiation (Cell Titer Glo). In kind it is cell-based. Conditions: concentration in which SER became 2, NCI-H460 cells, ionizing radiation 2 Gy, cultured 120 hour. The method in brief: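 Cells seeded at 2×10^3 cells/mL in RPMI-1640 with 10% FBS; after 24 h, compound added (0.1% DMSO), and 30 min later half the plates irradiated at 2 Gy. After 120 hour at 37° C, viability by Cell Titer Glo luminescence; SER2 is the concentration giving SER of 2 by sigmoidal fit.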

Where only a bound is given, the exact number is not on record here.

T1 sequence (Q13315 whole entry): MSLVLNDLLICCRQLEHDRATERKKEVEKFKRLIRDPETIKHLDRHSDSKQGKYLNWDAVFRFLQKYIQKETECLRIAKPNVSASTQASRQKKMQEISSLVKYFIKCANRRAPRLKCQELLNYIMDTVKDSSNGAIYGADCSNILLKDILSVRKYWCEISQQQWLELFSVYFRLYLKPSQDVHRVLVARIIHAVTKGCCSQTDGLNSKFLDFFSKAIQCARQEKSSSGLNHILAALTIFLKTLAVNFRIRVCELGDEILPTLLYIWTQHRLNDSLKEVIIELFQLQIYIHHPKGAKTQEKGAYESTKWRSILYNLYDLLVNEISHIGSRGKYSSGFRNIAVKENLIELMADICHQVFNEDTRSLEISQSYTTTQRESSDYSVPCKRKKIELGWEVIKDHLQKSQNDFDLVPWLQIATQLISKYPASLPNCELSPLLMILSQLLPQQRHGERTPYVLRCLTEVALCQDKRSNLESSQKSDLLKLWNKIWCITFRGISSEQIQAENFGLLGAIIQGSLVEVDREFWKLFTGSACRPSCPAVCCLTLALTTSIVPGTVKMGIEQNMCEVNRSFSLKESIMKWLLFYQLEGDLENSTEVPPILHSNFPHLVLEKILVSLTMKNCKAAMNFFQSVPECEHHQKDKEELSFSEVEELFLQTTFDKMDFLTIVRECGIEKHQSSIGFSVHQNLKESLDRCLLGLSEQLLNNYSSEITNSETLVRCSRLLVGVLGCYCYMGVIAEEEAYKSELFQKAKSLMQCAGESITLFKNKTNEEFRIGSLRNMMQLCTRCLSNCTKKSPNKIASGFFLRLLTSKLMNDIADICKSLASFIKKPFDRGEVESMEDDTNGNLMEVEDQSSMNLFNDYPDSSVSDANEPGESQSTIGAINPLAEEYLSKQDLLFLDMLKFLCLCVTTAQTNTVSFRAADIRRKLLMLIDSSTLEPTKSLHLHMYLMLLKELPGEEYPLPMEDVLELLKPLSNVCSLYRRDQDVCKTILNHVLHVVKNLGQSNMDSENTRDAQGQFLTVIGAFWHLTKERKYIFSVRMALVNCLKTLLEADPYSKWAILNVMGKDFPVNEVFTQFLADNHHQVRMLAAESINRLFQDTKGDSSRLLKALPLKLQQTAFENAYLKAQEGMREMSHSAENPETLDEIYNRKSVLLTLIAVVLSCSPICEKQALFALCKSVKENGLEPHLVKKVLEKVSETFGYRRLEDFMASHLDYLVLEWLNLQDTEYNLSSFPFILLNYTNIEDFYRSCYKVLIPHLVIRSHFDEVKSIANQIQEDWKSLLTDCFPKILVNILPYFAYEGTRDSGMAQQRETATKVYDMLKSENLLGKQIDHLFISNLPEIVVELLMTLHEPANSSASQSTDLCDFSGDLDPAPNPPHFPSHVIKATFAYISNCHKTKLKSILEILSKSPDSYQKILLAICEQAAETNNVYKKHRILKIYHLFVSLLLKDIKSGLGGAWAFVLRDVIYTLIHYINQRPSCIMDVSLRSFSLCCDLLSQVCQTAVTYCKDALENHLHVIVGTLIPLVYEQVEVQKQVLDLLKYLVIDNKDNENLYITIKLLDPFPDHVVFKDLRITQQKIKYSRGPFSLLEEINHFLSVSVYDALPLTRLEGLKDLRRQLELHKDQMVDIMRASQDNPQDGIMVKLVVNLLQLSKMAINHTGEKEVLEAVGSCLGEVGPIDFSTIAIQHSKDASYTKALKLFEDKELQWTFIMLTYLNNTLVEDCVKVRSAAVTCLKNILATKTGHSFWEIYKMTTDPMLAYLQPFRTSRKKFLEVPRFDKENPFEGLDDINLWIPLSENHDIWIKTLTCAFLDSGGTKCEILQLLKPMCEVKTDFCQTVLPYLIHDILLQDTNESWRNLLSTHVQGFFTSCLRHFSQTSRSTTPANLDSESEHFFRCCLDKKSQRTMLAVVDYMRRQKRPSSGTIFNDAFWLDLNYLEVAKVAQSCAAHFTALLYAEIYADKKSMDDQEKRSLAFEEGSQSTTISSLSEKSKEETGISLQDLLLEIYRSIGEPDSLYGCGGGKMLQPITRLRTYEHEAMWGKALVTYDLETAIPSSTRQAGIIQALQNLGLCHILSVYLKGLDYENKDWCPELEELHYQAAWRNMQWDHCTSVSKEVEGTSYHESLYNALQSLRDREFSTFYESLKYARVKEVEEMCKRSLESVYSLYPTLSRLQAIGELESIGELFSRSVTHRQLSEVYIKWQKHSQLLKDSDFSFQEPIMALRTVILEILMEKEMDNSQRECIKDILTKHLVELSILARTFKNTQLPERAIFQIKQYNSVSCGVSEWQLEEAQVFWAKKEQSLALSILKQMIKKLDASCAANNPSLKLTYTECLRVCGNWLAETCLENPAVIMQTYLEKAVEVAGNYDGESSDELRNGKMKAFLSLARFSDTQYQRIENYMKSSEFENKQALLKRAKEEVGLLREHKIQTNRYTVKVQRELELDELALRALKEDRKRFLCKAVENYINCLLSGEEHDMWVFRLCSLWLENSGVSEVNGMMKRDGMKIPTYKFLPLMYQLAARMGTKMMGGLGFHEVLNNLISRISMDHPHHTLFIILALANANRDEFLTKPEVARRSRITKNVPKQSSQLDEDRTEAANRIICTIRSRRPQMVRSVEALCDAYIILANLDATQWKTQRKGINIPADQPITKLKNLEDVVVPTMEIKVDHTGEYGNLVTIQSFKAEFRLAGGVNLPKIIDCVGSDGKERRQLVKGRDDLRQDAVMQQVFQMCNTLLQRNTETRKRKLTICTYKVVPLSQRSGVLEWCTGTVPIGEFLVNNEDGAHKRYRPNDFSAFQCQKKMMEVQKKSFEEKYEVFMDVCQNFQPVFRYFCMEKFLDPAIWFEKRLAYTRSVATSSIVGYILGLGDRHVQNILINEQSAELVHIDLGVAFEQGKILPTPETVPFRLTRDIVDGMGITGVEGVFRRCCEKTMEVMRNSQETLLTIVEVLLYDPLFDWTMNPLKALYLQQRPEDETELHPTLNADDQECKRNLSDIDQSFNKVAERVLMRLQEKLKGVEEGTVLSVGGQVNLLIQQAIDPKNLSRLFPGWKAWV

Consider `N#Cc1ccnc(CNc2ccc3c(c2)Sc2cccc(-c4cc(N5CCOCC5)cc(=O)[nH]4)c2O3)c1` [Example 4-4-28, 2-(((6-(4-Morpholino-6-oxo-1,6-dihydropyridin-2-yl)phenoxathiin-2-yl)amino)methyl) isonicotinonitrile], for which the IC50 on ATM was < 100 nM. Also, the SER2 (concentration at which the radiation sensitivity-enhancement ratio reaches 2) in experiment [1] (Homo sapiens, NCI-H460, 120 h) was 100 to 500 nM.

For `O=c1cc(N2CCOCC2)cc(-c2cccc3c2Oc2ccc(NCc4cccs4)cc2C3)[nH]1` [Example 2-13-6, 4-Morpholino-6-(7-((thiophen-2-ylmethyl)amino)-9H-xanthen-4-yl) pyridin-2(1H)-one], on ATM, the IC50 was < 100 nM. Also, the SER2 (concentration at which the radiation sensitivity-enhancement ratio reaches 2) in experiment [1] (Homo sapiens, NCI-H460, 120 h) lay within 500 to 2000 nM.

For `COC(=O)C(Nc1ccc2c(c1)Sc1cccc(-c3cc(N4CCOCC4)cc(=O)[nH]3)c1S2)c1ccc(C)cn1` (stereo not drawn) [Example 1-12-108, Methyl 2-(5-methylpyridin-2-yl)-2-((6-(4-morpholino-6-oxo-1,6-dihydropyridin-2-yl)thianthren-2-yl)amino) acetate], on ATM, the IC50 was < 100 nM. The SER2 (concentration at which the radiation sensitivity-enhancement ratio reaches 2) in experiment [1] (Homo sapiens, NCI-H460, 120 h) lay in the range of 100 to 500 nM.

As for `O=c1cc(N2CCOCC2)cc(-c2cccc3c2Sc2ccc(NC4CCCC4N4CCOCC4)cc2S3)[nH]1` (racemic) [Example 1-16-1-1, 4-morpholino-6-(7-((2-morpholinocyclopentyl)amino)thianthren-1-yl)pyridin-2(1H)-one], at ATM, the IC50 is < 100 nM. Moreover, the SER2 (concentration at which the radiation sensitivity-enhancement ratio reaches 2) in experiment [1] (Homo sapiens, NCI-H460, 120 h) was < 100 nM.

Regarding `Cc1ccc(C(C)Nc2ccc3c(c2)Sc2cccc(-c4cc(N5CCOCC5)cc(=O)[nH]4)c2S3)nc1` (stereo not drawn) [Example 1-12-113, 6-(7-((1-(5-Methylpyridin-2-yl)ethyl)amino)thianthren-1-yl)-4-morpholino pyridin-2(1H)-one], the IC50 on ATM was < 100 nM. For the same compound, the SER2 (concentration at which the radiation sensitivity-enhancement ratio reaches 2) in experiment [1] (Homo sapiens, NCI-H460, 120 h) was 100 to 500 nM.

On to `Cc1ccc(C(CCCN(C)C)Nc2ccc3c(c2)Sc2cccc(-c4cc(N5CCOCC5)cc(=O)[nH]4)c2S3)nc1` (single isomer, unassigned) [Example 1-51-3, 6-(7-((4-(Dimethylamino)-1-(5-methylpyridin-2-yl)butyl)amino)thianthren-1-yl)-4-morpholino pyridin-2(1H)-one], for which, on ATM, the IC50 was < 100 nM. Besides, in experiment [1] (Homo sapiens, NCI-H460, 120 h), the SER2 (concentration at which the radiation sensitivity-enhancement ratio reaches 2) was in the range of 100 to 500 nM.

On to `O=c1cc(N2CCOCC2)cc(-c2cccc3c2Oc2ccc(NCc4cncc(Cl)n4)cc2C3)[nH]1` [Example 2-13-1, 6-(7-(((6-chloropyrazin-2-yl)methyl)amino)-9H-xanthen-4-yl)-4-morpholinopyridin-2(1H)-one], for which the IC50 at ATM was 100 to 500 nM. Further, the SER2 (concentration at which the radiation sensitivity-enhancement ratio reaches 2) in experiment [1] (Homo sapiens, NCI-H460, 120 h) lay in the range of 500 to 2000 nM.

As for `CCOc1ccnc(CNc2ccc3c(c2)Cc2cccc(-c4cc(N5CCOCC5)cc(=O)[nH]4)c2O3)c1` [Example 2-13-11, 6-(7-(((4-Ethoxypyridin-2-yl)methyl)amino)-9H-xanthen-4-yl)-4-morpholino pyridin-2(1H)-one], on ATM, the IC50 is < 100 nM. Besides, the SER2 (concentration at which the radiation sensitivity-enhancement ratio reaches 2) in experiment [1] (Homo sapiens, NCI-H460, 120 h) is 100 to 500 nM.

Consider `CN(C)c1cncc(CNc2ccc3c(c2)Cc2cccc(-c4cc(N5CCOCC5)cc(=O)[nH]4)c2O3)c1` [Example 2-21-7, 6-(7-(((5-(Dimethylamino)pyridin-3-yl)methyl)amino)-9H-xanthen-4-yl)-4-morpholino pyridin-2(1H)-one], for which the IC50 on ATM was < 100 nM. The SER2 (concentration at which the radiation sensitivity-enhancement ratio reaches 2) in experiment [1] (Homo sapiens, NCI-H460, 120 h) lay within 500 to 2000 nM.

In the case of `COCCOCC(Nc1ccc2c(c1)Sc1cccc(-c3cc(N4CCOCC4)cc(=O)[nH]3)c1S2)c1ccc(C)cn1` (stereo not drawn) [Example 1-12-102, 6-(7-((2-(2-Methoxyethoxy)-1-(5-methylpyridin-2-yl)ethyl)amino)thianthren-1-yl)-4-morpholino pyridin-2(1H)-one], the IC50 at ATM is < 100 nM. The SER2 (concentration at which the radiation sensitivity-enhancement ratio reaches 2) in experiment [1] (Homo sapiens, NCI-H460, 120 h) was in the range of 100 to 500 nM.

Take `O=c1cc(N2CCOCC2)cc(-c2cccc3c2Oc2ccc(NC4CCN(CCc5ccccc5)CC4)cc2S3)[nH]1` [Example 4-10, 4-Morpholino-6-(8-((1-phenethylpiperidin-4-yl)amino)phenoxathiin-4-yl)pyridin-2(1H)-one]: the IC50 on ATM was < 100 nM. Further, in experiment [1] (Homo sapiens, NCI-H460, 120 h), the SER2 (concentration at which the radiation sensitivity-enhancement ratio reaches 2) lay within 100 to 500 nM.

For `Cc1cccc(C(Nc2ccc3c(c2)Sc2cccc(-c4cc(N5CCOCC5)cc(=O)[nH]4)c2S3)C2CCCN(C)C2)n1` (single isomer, unassigned) [Example 1-22-5, 6-(7-(((1-Methylpiperidin-3-yl)(6-methylpyridin-2-yl)methyl)amino)thianthren-1-yl)-4-morpholino pyridin-2 (1H)-one], the IC50 at ATM was < 100 nM. For the same compound, in experiment [1], the SER2 (concentration at which the radiation sensitivity-enhancement ratio reaches 2) lay in the range of 100 to 500 nM.

As to `O=c1cc(N2CCOCC2)cc(-c2cccc3c2Sc2ccc(N[C@@H]4CCCC[C@H]4N4CCOCC4)cc2S3)[nH]1` [Example 1-48-1, 4-Morpholino-6-(7-(((1R,2R)-2-morpholinocyclohexyl)amino)thianthren-1-yl)pyridin-2(1H)-one], the IC50 on ATM is < 100 nM. For the same compound, the SER2 (concentration at which the radiation sensitivity-enhancement ratio reaches 2) in experiment [1] (Homo sapiens, NCI-H460, 120 h) is 100 to 500 nM.

With `COc1cc(CNc2ccc3c(c2)Cc2cccc(-c4cc(N5CCOCC5)cc(=O)[nH]4)c2O3)cnc1OC` [Example 2-2-35, 6-(7-(((5,6-Dimethoxypyridin-3-yl)methyl)amino)-9H-xanthen-4-yl)-4-morpholino pyridin-2(1H)-one], the IC50 on ATM is < 100 nM. In addition, the SER2 (concentration at which the radiation sensitivity-enhancement ratio reaches 2) in experiment [1] (Homo sapiens, NCI-H460, 120 h) fell in the range of 500 to 2000 nM.

In the case of `Cc1ccc(C(Nc2ccc3c(c2)Sc2cccc(-c4cc(N5CCOCC5)cc(=O)[nH]4)c2S3)C2CCN(C)CC2)nc1` (stereo not drawn) [Example 1-35, 6-(7-(((1-methylpiperidin-4-yl)(5-methylpyridin-2-yl)methyl)amino)thianthren-1-yl)-4-morpholinopyridin-2(1H)-one], the IC50 on ATM is < 100 nM. Moreover, in experiment [1] (Homo sapiens, NCI-H460, 120 h), the SER2 (concentration at which the radiation sensitivity-enhancement ratio reaches 2) is < 100 nM.

Turning to `COc1ncc(CNc2ccc3c(c2)Sc2cccc(-c4cc(N5CCOCC5)cc(=O)[nH]4)c2O3)cc1F` [Example 4-4-14, 6-(8-(((5-Fluoro-6-methoxypyridin-3-yl)methyl)amino)phenoxathiin-4-yl)-4-morpholino pyridin-2(1H)-one], the IC50 at ATM was < 100 nM. The SER2 (concentration at which the radiation sensitivity-enhancement ratio reaches 2) in experiment [1] (Homo sapiens, NCI-H460, 120 h) was 100 to 500 nM.

Regarding `COc1cccc(C(CO)Nc2ccc3c(c2)Sc2cccc(-c4cc(N5CCOCC5)cc(=O)[nH]4)c2S3)n1` (stereo not drawn) [Example 1-12-132, 6-(7-((2-Hydroxy-1-(6-methoxypyridin-2-yl)ethyl)amino)thianthren-1-yl)-4-morpholino pyridin-2(1H)-one], the IC50 at ATM was < 100 nM. The SER2 (concentration at which the radiation sensitivity-enhancement ratio reaches 2) in experiment [1] (Homo sapiens, NCI-H460, 120 h) was in the range of 100 to 500 nM.

For the compound `CCN(C)CCC(Nc1ccc2c(c1)Sc1cccc(-c3cc(N4CCOCC4)cc(=O)[nH]3)c1S2)c1cnc(C)cn1` (stereo not drawn) [Example 1-23-2, 6-(7-((3-(Ethyl(methyl)amino)-1-(5-methylpyrazin-2-yl)propyl)amino)thianthren-1-yl)-4-morpholinopyridin-2(1H)-one], the IC50 on ATM was < 100 nM. The SER2 (concentration at which the radiation sensitivity-enhancement ratio reaches 2) in experiment [1] (Homo sapiens, NCI-H460, 120 h) lay within 100 to 500 nM.

As to `O=c1cc(N2CCOCC2)cc(-c2cccc3c2Oc2ccc(NCc4cncc(-n5cccn5)c4)cc2S3)[nH]1` [Example 4-4-9, 6-(8-(((5-(1H-Pyrazol-1-yl)pyridin-3-yl)methyl)amino)phenoxathiin-4-yl)-4-morpholino pyridin-2(1H)-one], the IC50 on ATM was < 100 nM. In addition, the SER2 (concentration at which the radiation sensitivity-enhancement ratio reaches 2) in experiment [1] (Homo sapiens, NCI-H460, 120 h) lay within 100 to 500 nM.

Consider `O=c1cc(N2CCOCC2)cc(-c2cccc3c2Oc2ccc(NCc4cncc(C5CCCC5)c4)cc2S3)[nH]1` [Example 4-8-15, 6-(8-(((5-Cyclopentylpyridin-3-yl)methyl)amino)phenoxathiin-4-yl)-4-morpholino pyridin-2(1H)-one], for which, on ATM, the IC50 is < 100 nM. For the same compound, in experiment [1] (Homo sapiens, NCI-H460, 120 h), the SER2 (concentration at which the radiation sensitivity-enhancement ratio reaches 2) lay in the range of 500 to 2000 nM.

Turning to `CCC(Nc1ccc2c(c1)Cc1cccc(-c3cc(N4CCOCC4)cc(=O)[nH]3)c1O2)c1cncc(OC)c1` (stereo not drawn) [Example 2-14-16, 6-(7-((1-(5-Methoxypyridin-3-yl)propyl)amino)-9H-xanthen-4-yl)-4-morpholino pyridin-2 (1H)-one], the IC50 on ATM was < 100 nM. Also, the SER2 (concentration at which the radiation sensitivity-enhancement ratio reaches 2) in experiment [1] (Homo sapiens, NCI-H460, 120 h) is < 100 nM.

As to `COc1ccnc(C(C)Nc2ccc3c(c2)Sc2cccc(-c4cc(N5CCOCC5)cc(=O)[nH]4)c2S3)n1` (stereo not drawn) [Example 1-12-77, 6-(7-((1-(4-Methoxypyrimidin-2-yl)ethyl)amino)thianthren-1-yl)-4-morpholino pyridin-2(1H)-one], on ATM, the IC50 is < 100 nM. The SER2 (concentration at which the radiation sensitivity-enhancement ratio reaches 2) in experiment [1] (Homo sapiens, NCI-H460, 120 h) lay in the range of 100 to 500 nM.

`O=c1cc(N2CCOCC2)cc(-c2cccc3c2Sc2ccc(NCCN4CCOCC4)cc2S3)[nH]1` [Example 1-10-7, 4-Morpholino-6-(7-((2-morpholinoethyl)amino)thianthren-1-yl)pyridin-2 (1H)-one]: the IC50 at ATM was < 100 nM. The SER2 (concentration at which the radiation sensitivity-enhancement ratio reaches 2) in experiment [1] (Homo sapiens, NCI-H460, 120 h) is 100 to 500 nM.

Take `Cc1cccc(C(CCN(C)C)Nc2ccc3c(c2)Sc2cccc(-c4cc(N5CCOCC5)cc(=O)[nH]4)c2S3)n1` (stereo not drawn) [Example 1-22-1, 6-(7-((3-(dimethylamino)-1-(6-methylpyridin-2-yl)propyl)amino)thianthren-1-yl)-4-morpholinopyridin-2(1H)-one]: the IC50 on ATM is < 100 nM. The SER2 (concentration at which the radiation sensitivity-enhancement ratio reaches 2) in experiment [1] (Homo sapiens, NCI-H460, 120 h) lay within 100 to 500 nM.
